In US20210023232A1, “COMBINATION OF POLYETHYLENE GLYCOL AND RAPAMYCIN AND USE THEREOF” (JENKEM TECHNOLOGY CO., LTD. (TIANJIN), priority 2018, published 2021):

Test system: KLH antibody
Experiment: Influence on keyhole limpet hemoeyanin (KLH) antibody level in immunized mice, serum ELISA potency assay
Type: in vivo, mouse
Conditions: for KLH antibody ELISA OD value, data obtained after the third immunization (1: 1K) / KLH antibody ELISA OD value, data obtained after the fourth immunization (1: 1K) / KLH antibody ELISA OD value, data obtained after the third immunization (1: 3K) / KLH antibody ELISA OD value, data obtained after the fourth immunization (1: 3K): Balb/c mice immunized with KLH, test substance given on day 0 and day 7, x ± sd; for KLH antibody ELISA OD value, data obtained after the third immunization (1: 1K) / KLH antibody ELISA OD value, data obtained after the fourth immunization (1: 1K): serum dilution 1:1K; for KLH antibody ELISA OD value, data obtained after the third immunization (1: 1K) / KLH antibody ELISA OD value, data obtained after the third immunization (1: 3K): tail blood day 28-29; for KLH antibody ELISA OD value, data obtained after the fourth immunization (1: 1K) / KLH antibody ELISA OD value, data obtained after the fourth immunization (1: 3K): tail blood day 40-41; for KLH antibody ELISA OD value, data obtained after the third immunization (1: 3K) / KLH antibody ELISA OD value, data obtained after the fourth immunization (1: 3K): serum dilution 1:3K
Description: 2.4.1. Antigenic Information: Immunogen: KLH; Tested Substance: KLH
Primary immunization: On the first day, 100 ug antigen (immunogen) and Freund's complete adjuvant in the same volume were formed into a water-in-oil compound by means of mutual injection with a syringe, and then the compound was given to each of 18 mice by subcutaneous multi-point injection.
Second immunization: On the 14th day, 100 ug antigen (immunogen) and Freund's incomplete adjuvant in the same volume were formed into a water-in-oil compound by means of mutual injection with a syringe, and then the compound was given to each of 18 mice by subcutaneous multi-point injection.
Third immunization: On the 24th day, 100 ug antigen (immunogen) and Freund's incomplete adjuvant in the same volume were formed into a water-in-oil compound by means of mutual injection with a syringe, and then the compound was given to each of 18 mice by subcutaneous multi-point injection.
Test of tail blood: On the 28th-29th day, about 20 ul tail blood was collected from the tail vein, followed by 30 min RT and 5 min 5000 rpm centrifugation; then haemocyte precipitate was removed; and serum was taken for Elisa potency assay.
Fourth immunization: On the 34th day, 100 ug antigen (immunogen) and Freund's incomplete adjuvant in the same volume were formed into a water-in-oil compound by means of mutual injection with a syringe, and then the compound was given to each of 18 mice by subcutaneous multi-point injection.
Group G2 (Group IV): immunization was performed with reference to group G1; moreover, […] JK1208R (prepared in Example 1) was given by intravenous injection on the 0th day and 7th day, respectively.
Group G2 (Group IV): immunization was performed with reference to group G1; moreover, 52 μg rapamycin was given by oral administration on the 0th day and 7th day, respectively.
Test of tail blood: On the 40th-41st day, about 20 ul tail blood was collected from the tail vein, followed by 30 min RT and 5 min 5000 rpm centrifugation; then haemocyte precipitate was removed; and serum was taken for ELISA potency assay.
Coating: 10 ug antigen (tested substance) and 10 ml coating buffer (1.6 g […]+2.92 g NaHCO3+100 ml deionized water) were mixed; the solution was applied to the Elisa microplate, 100 ul per pore; the microplate was incubated for 2 h at 37° C. or kept still overnight at 4° C.
Blocking: The antigen coating buffer was sucked and removed from the coated microplate; a blocking buffer (5% dried skimmed milk and coating buffer) was directly added, 150 ul per pore; the microplate was treated for 2 h at 37° C., followed by three times of washing with de-ionized water; then the microplate was provisionally stored at 4° C.
Assay: serum and 1×PBS was mixed at a ratio of 1:1000; 150 ul diluent was added into the first pore; 100 ul 1×PBS were respectively added into each of the 2nd-8th pores; 50 ul liquid was transferred from the first pore into the second pore, followed by suction blow for 10 times; then, 50 ul liquid was transferred into the third pore, followed by suction blow for 10 times; next, 50 ul liquid was transferred into the fourth pore, followed by suction blow for 10 times; the test was done in the similar way in turn until the 7th pore, 50 ul liquid was removed from the 7th pore; the […] pore was a negative control group; the microplate was incubated for 1 h at 37° C., followed by three times of washing with de-ionized water; then a second antibody (goat-anti-mouse IgG-HRP 1:10000 1×PBS) was added, 100 ul each pore; the microplate was incubated for 30 min at 37° C., followed by three times of washing with de-ionized water; a chromogenic solution was added (according to the instructions on the reagent box), 100 ul each pore; the microplate was incubated for 10 min at 37° C. and then ended (2M sulphuric acid, 30 ul per pore). The OD value was tested with the microplate reader.

Row | Compound | KLH antibody ELISA OD value, data obtained after the third immunization (1: 1K) | KLH antibody ELISA OD value, data obtained after the fourth immunization (1: 1K) | KLH antibody ELISA OD value, data obtained after the third immunization (1: 3K) | KLH antibody ELISA OD value, data obtained after the fourth immunization (1: 3K) | Effect on generation of the KLH antibody (after the fourth immunization) | Statistical difference from immune model group after the fourth immunization (at 1:1K and 1:3K) | Statistical difference from immune model group after the third immunization (at 1:3K)
1 | CO[C@H]1C[C@@H]2CC[C@@H](C)[C@@](O)(O2)C(=O)C(=O)N2CCCC[C@H]2C(=O)O[C@H]([C@H](C)C[C@@H]2CC[C@@H](O)[C@H](OC)C2)CC(=O)[C@H](C)/C=C(\C)[C@@H](O)[C@@H](OC)C(=O)[C@H](C)C[C@H](C)/C=C/C=C/C=C/1C [rapamycin] | 1.77 ± 0.33 | 2.56 ± 0.11 | 1.49 ± 0.38 | 2.40 ± 0.24 | – | – | –
2 | monomethoxy polyethylene glycol-glutamic dipeptide-rapamycin [JK1208R] | 1.33 ± 0.24 | 1.85 ± 0.32 | 0.86 ± 0.20 | 1.54 ± 0.31 | could remarkably resist the generation of the KLH antibody | show remarkably difference | show remarkably difference
